Test results reported in ChEMBL document CHEMBL1156383, “Isolation and biological evaluation of filiformin, plakortide F, and plakortone G from the Caribbean sponge Plakortis sp” (J Nat Prod, 2001).
In brackets after ≈: the same amount, converted by molar mass. Activity calls are given as the source filed them. The rule behind the calls is not given here.

Experiments:
THP-1 = assay: Immunostimulatory activity in human THP1 cells assessed as LPS-induced NF-kappaB activation at =< 50 ug/mL by luciferase reporter gene assay; assay type: functional, cell-based
A549 = assay: Cytotoxicity against human A549 cells by alamar blue assay; assay type: functional, cell-based
Candida albicans = assay: Antifungal activity against Candida albicans; assay type: functional, organism-based
[1] = test system: Mycobacterium tuberculosis; assay: Antitubercular activity against Mycobacterium tuberculosis at 6.25 ug/mL; assay type: functional
Plasmodium falciparum [2] = assay: Antimalarial activity against chloroquine-resistant Plasmodium falciparum W2; assay type: functional, organism-based
Cryptococcus neoformans = assay: Antifungal activity against Cryptococcus neoformans; assay type: functional, organism-based
SK-MEL-28 = assay: Cytotoxicity against human SK-MEL-28 cells by alamar blue assay; assay type: functional, cell-based
Pseudomonas aeruginosa = assay: Antibacterial activity against Pseudomonas aeruginosa; assay type: functional, organism-based
HT-29 = assay: Cytotoxicity against human HT-29 cells by alamar blue assay; assay type: functional, cell-based
Plasmodium falciparum [3] = assay: Antimalarial activity against Plasmodium falciparum D6; assay type: functional, organism-based
Hepatitis B virus = assay: Antiviral activity against Hepatitis B virus cell culture assay; assay type: functional, organism-based
Aspergillus fumigatus = assay: Antifungal activity against Aspergillus fumigatus; assay type: functional, organism-based
Staphylococcus aureus [4] = assay: Antibacterial activity against Staphylococcus aureus; assay type: functional, organism-based
Staphylococcus aureus [5] = assay: Antibacterial activity against methicillin-resistant Staphylococcus aureus; assay type: functional, organism-based
[6] = test system: Mycobacterium intracellulare; assay: Antibacterial activity against Mycobacterium intracellular; assay type: functional, organism-based
Plasmodium berghei [7] = assay: Antimalarial activity against Plasmodium berghei ANKA infected Swiss albino mice (Mus musculus) intraperitoneal dose over 3 days; assay type: functional, organism-based
Plasmodium berghei [8] = assay: Antimalarial activity as increased survival against Plasmodium berghei ANKA infected Swiss albino mice (Mus musculus) at 100 uM/kg intraperitoneal dose; assay type: functional, organism-based
P388 = assay: Cytotoxicity against mouse P388 cells by alamar blue assay; assay type: functional, cell-based
[9] = test system: Human immunodeficiency virus; assay: Antiviral activity against Human immunodeficiency virus; assay type: functional, organism-based; details: Human immunodeficiency virus 1
Toxoplasma gondii = assay: Antiparasitic activity against Toxoplasma gondii RH infected in mouse L929 cells assessed as [3H]uracil incorporation at 1 uM after 72 hrs by scintillation counting; assay type: functional
Plasmodium berghei [10] = assay: Antimalarial activity as parasitaemia against Plasmodium berghei ANKA infected Swiss albino mice (Mus musculus) at 100 uM/kg intraperitoneal dose after 3 days; assay type: functional
[11] = test system: Mycobacterium tuberculosis; assay: Antitubercular activity against Mycobacterium tuberculosis; assay type: functional

SMILES: Cc1cc2c(cc1Br)[C@]1(C)CC[C@](C)(CO2)[C@@H]1C
- Activity (THP-1): inactive

SMILES: CC/C=C/[C@H](CC)CCC[C@@]1(CC)C=C(CC)C(=O)O1 [PLAKORTONE G]
- IC50 (A549): > 1 µg/mL
- Activity (Candida albicans): inactive
- inhibition at 6.25 µg/mL [1]: 4%
- IC50 (Plasmodium falciparum [2]): > 4.76 µg/mL
- Activity (Cryptococcus neoformans): inactive
- IC50 (SK-MEL-28): > 10 µg/mL
- Activity (Pseudomonas aeruginosa): inactive
- IC50 (HT-29): > 1 µg/mL
- IC50 (Plasmodium falciparum [3]): 4.2 µg/mL (≈ 15.1 µM)
- EC50 (Hepatitis B virus): > 100 µg/mL
- Activity (Aspergillus fumigatus): inactive
- Activity (Staphylococcus aureus [4]): inactive
- Activity (Staphylococcus aureus [5]): inactive
- Activity [6]: inactive

SMILES: CC/C(=C(\c1ccccc1)c1ccc(OCCN(C)C)cc1)c1ccccc1 [TAMOXIFEN]
- IC50 (A549): 1.86 µg/mL (≈ 5.01 µM)
- IC50 (SK-MEL-28): 1.86 µg/mL (≈ 5.01 µM)
- IC50 (HT-29): 1.86 µg/mL (≈ 5.01 µM)

SMILES: CC/C=C/C(CC)CCC[C@@]1(CC)C[C@H](CC)[C@H](CC(=O)OC)OO1 (stereo not given in full) [PLAKORTIDE F]
- IC50 (A549): 2.5 µg/mL (≈ 7.05 µM)
- Activity (Candida albicans): inactive
- IC50 (Plasmodium berghei [7]): Not Active
- inhibition at 6.25 µg/mL [1]: 29%
- IC50 (Plasmodium falciparum [2]): 0.39 µg/mL (≈ 1.1 µM)
- Activity (Cryptococcus neoformans): inactive
- IC50 (SK-MEL-28): 2.5 µg/mL (≈ 7.05 µM)
- Activity (Pseudomonas aeruginosa): inactive
- Activity (Plasmodium berghei [8]): inactive
- IC50 (HT-29): 1.25 µg/mL (≈ 3.53 µM)
- IC50 (Plasmodium falciparum [3]): 0.48 µg/mL (≈ 1.35 µM)
- IC50 (P388): 1.25 µg/mL (≈ 3.53 µM)
- EC50 (Hepatitis B virus): > 100 µg/mL
- EC50 [9]: 13 µM
- inhibition at 1 µM (Toxoplasma gondii): 67%
- Activity (Aspergillus fumigatus): inactive
- Activity (Staphylococcus aureus [4]): inactive
- Activity (Staphylococcus aureus [5]): inactive
- Activity (Plasmodium berghei [10]): inactive
- Activity [6]: inactive

SMILES: Nc1ccn([C@@H]2CS[C@H](CO)O2)c(=O)n1 [LAMIVUDINE]
- EC50 (Hepatitis B virus): 0.062 µg/mL (≈ 0.27 µM)

SMILES: CCN(CC)CCCC(C)Nc1ccnc2cc(Cl)ccc12 (stereo not given) [CHLOROQUINE]
- Activity (Plasmodium berghei [10]): 0.1%

SMILES: O=C1C(O)=C([C@H]2CC[C@H](c3ccc(Cl)cc3)CC2)C(=O)c2ccccc21 [ATOVAQUONE]
- inhibition at 1 µM (Toxoplasma gondii): 100%

SMILES: Cc1cn([C@H]2C[C@H](N=[N+]=[N-])[C@@H](CO)O2)c(=O)[nH]c1=O [ZIDOVUDINE]
- EC50 [9]: 0.004 µM

SMILES: CO[C@H]1/C=C/O[C@@]2(C)Oc3c(C)c(O)c4c(O)c(c(/C=N/N5CCN(C)CC5)c(O)c4c3C2=O)NC(=O)/C(C)=C\C=C\[C@H](C)[C@H](O)[C@@H](C)[C@@H](O)[C@@H](C)[C@H](OC(C)=O)[C@@H]1C [RIFAMPIN]
- MIC [11]: 0.25 µg/mL (≈ 0.304 µM)

SMILES: C[C@@H]1CC[C@H]2[C@@H](C)C(=O)O[C@@H]3O[C@@]4(C)CC[C@@H]1[C@]32OO4 [ARTEMISININ]
- IC50 (Plasmodium falciparum [3]): 0.012 µg/mL (≈ 0.0425 µM)
- Activity (Plasmodium berghei [10]): 35.9%
